Assay results as given in patent publication EP4332093A1, “SALT CONTAINING PIPERAZINE POLYCYCLIC DERIVATIVE, CRYSTAL FORM THEREOF, PREPARATION METHOD THEREFOR, AND USE THEREOF” (Shanghai Hansoh Biomedical Co., Ltd., priority 2021, dated 2022).

How the values were obtained:
dopamine D3 receptor = molecular target: T1, dopamine D3 receptor (Homo sapiens, UniProt P35462); assay: Radioligand binding assay, dopamine D3 receptor ([3H]-methylspiperone); conditions: Human Dopamine D3 Receptor membrane, [3H]-methylspiperone 0.5 nM
T1 construct: purchased PerkinElmer ES-173-M400UA
T1 sequence (P35462 whole entry): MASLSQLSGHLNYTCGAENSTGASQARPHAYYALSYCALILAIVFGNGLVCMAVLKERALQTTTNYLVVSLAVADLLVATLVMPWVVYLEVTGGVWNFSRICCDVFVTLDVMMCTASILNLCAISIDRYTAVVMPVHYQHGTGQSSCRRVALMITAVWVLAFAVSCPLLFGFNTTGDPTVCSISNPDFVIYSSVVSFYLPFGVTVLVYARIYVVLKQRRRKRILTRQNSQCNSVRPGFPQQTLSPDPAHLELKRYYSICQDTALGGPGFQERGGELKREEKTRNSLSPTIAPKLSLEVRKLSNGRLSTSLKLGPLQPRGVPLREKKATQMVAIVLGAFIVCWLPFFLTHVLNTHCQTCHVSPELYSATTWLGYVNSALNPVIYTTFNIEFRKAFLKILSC

5-HT2A receptor = 5-HT2A receptor (Homo sapiens, UniProt P28223); assay: Radioligand binding assay, 5-HT2A receptor ([3H]-Ketanserin); design: purchased PerkinElmer; conditions: Human 5-HT2A Receptor membrane, [3H]-Ketanserin 2 nM; read-out: 5HT-2A Binding IC50
Sequence of 5-HT2A receptor (P28223 whole entry): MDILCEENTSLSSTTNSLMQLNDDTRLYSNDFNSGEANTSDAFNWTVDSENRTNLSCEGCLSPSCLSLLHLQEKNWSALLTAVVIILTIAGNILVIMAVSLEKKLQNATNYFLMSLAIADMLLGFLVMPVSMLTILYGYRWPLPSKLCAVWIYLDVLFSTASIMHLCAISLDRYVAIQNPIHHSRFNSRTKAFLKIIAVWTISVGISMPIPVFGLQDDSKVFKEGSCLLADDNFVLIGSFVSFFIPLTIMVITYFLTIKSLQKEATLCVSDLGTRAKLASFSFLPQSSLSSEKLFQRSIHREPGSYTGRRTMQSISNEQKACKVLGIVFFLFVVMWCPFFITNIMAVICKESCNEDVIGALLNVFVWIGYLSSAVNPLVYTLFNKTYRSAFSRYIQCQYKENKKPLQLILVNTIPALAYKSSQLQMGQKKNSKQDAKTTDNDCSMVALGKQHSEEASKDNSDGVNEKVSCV

rats = assay: Pharmacodynamic model of active escape experiment in rats; assay type: in vivo; conditions: F344 rats, oral, Dose 1 mg/kg, one hour before the test; Vehicle 91-98%
Description: To evaluate the anti-schizophrenic effect of the compounds using the pharmacodynamic model of the active escape experiment in rats.
A certain mass (such as 1.0 g) of CMC-Na was weighed into a glass bottle. A certain volume (such as 200 mL) of purified water was added. The resulting mixture was stirred to disperse evenly. 1% (v/v) Tween 80 was added according to the solution volume, and the resulting mixture was stirred overnight to obtain a homogeneous clear solution, which was stored at 2 to 8°C for later use.
A prescription amount of the compound was weighed, followed by the addition of a prescription volume of 0.5% CMC-Na+1% Tween 80 solution. […]
The actual sample amount needs to be calculated during the formulation and administration of the compound solution. […]
The current intensity was 0.6 mA and the duration was 10 seconds. […] This would be recorded as escape failures, and the single training ended; • 5.1.5 Each animal was trained 30 times a day for a total of 6 days, and returned to the cage after the training. • 5.2 Baseline test and grouping […]
The following data was collected by the software for data analysis: • Number of avoids of the animal; • Number of escape failures of the animal; • Escape latency of the animal; • All measurement data were expressed as mean ± standard error (Mean ± SEM), and analyzed by Graphpad 6 statistical software. […]

| SMILES | IC50 (dopamine D3 receptor) [nM] | IC50 (5-HT2A receptor) [nM] | CAR value (rats) [%] |
| --- | --- | --- | --- |
| O=C(N[C@H]1C[C@H](CCN2CCN(c3cccc(Cl)c3Cl)CC2)C1)C1(O)CC1 [Example 6A, N-(Trans-3-(2-(4-(2,3-dichlorophenyl)piperazin-1-yl)ethyl)cyclobutyl)-1-hydroxycy clopropane-1-carboxamide] | 0.75 | 5.77 |  |
| O=C(N[C@H]1C[C@H](CCN2CCN(c3cccc(Cl)c3Cl)CC2)C1)c1nccs1 [Example 7A, N-(Trans-3-(2-(4-(2,3-dichlorophenyl)piperazin-1-yl)ethyl)cyclobutyl)thiazole-2-car boxamide] | 0.44 | 0.79 |  |
| O=C(NC1CC(CCN2CCN(c3cccc(Cl)c3Cl)CC2)C1)c1ncco1 (stereo not drawn) [Example 12, N-(3-(2-(4-(2,3-Dichlorophenyl)piperazin-1-yl)ethyl)cyclobutyl)oxazole-2-carboxamide] |  |  | 30 |
| O=C(N[C@H]1C[C@H](CCN2CCN(c3cccc(Cl)c3Cl)CC2)C1)c1ncco1 [Example 12A, N-(Trans-3-(2-(4-(2,3-dichlorophenyl)piperazin-1-yl)ethyl)cyclobutyl)oxazole-2-car boxamide] | 0.37 | 4.19 | 18.5 |
| O=C(N[C@H]1C[C@@H](CCN2CCN(c3cccc(Cl)c3Cl)CC2)C1)c1ncco1 [Example 12B, N-(Cis-3-(2-(4-(2,3-dichlorophenyl)piperazin-1-yl)ethyl)cyclobutyl)oxazole-2-carbo xamide] | 2.54 | 8.73 |  |
| O=C(N[C@H]1C[C@H](CCN2CCN(c3cccc(Cl)c3Cl)CC2)C1)c1cccc2ncccc12 [Example 19A, N-(Trans-3-(2-(4-(2,3-dichlorophenyl)piperazin-1-yl)ethyl)cyclobutyl)quinoline-5-c arboxamide] | 0.4 | 1.89 |  |
